Molecular target: human V1a receptor (Homo sapiens (Human), UniProt P37288)
Test: Cellular in vitro assay for determining vasopressin receptor activity (V1a, aequorin luminescence)
Assay type: cell-based
Conditions: selectivity, IC50 hV2 divided by IC50 hV1a
Description: B-1. Cellular In Vitro Assay for Determining Vasopressin Receptor Activity
The identification of agonists and antagonists of the V1a and V2 vasopressin receptors from humans, rats and dogs as well as the quantification of the activity of the compounds of the invention is carried out using recombinant cell lines. These cell lines originally derive from a hamster's ovary epithelial cell (Chinese Hamster Ovary, CHO K1, ATCC: American Type Culture Collection, Manassas, Va. 20108, USA). The test cell lines constitutively express the human, rat or dog V1a or V2 receptors. In case of the Gαq-coupled V1a receptors, cells are also stably transfected with a modified form of the calcium-sensitive photoproteins aequorin (human and rat V1a) or obe-lin (dog V1a), which, after reconstitution with the cofactor coelenterazine, emit light when there are increases in free calcium concentrations [Rizzuto R, Simpson A W, Brini M, Pozzan T, Nature 358, 325-327 (1992); Illarionov B A, Bondar V S, Illarionova V A, Vysotski E S, Gene 153 (2), 273-274 (1995)]. The resulting vasopressin receptor cells react to stimulation of the recombinantly expressed Via receptors by intracellular release of calcium ions, which can be quantified by the resulting photoprotein luminescence. The Gs-coupled V2 receptors are stably transfected into cell lines expressing the gene for firefly luciferase under control of a CRE-responsible promoter. Activation of V2 receptors induces the activation of the CRE-responsive promoter via cAMP increase, thereby inducing the expression of firefly luciferase. The light emitted by photoproteins of V1a cell lines as well as the light emitted by firefly luciferase of V2 cell lines corresponds to the activation or inhibition of the respective vasopressin receptor. The bioluminescence of the cell lines is detected using a suitable luminometer [Milligan G, Marshall F, Rees S, Trends in Pharmacological Sciences 17, 235-237 (1996)].
Vasopressin V1a Receptor Cell Lines:
On the day before the assay, the cells are plated out in culture medium (DMEM/F12, 2% FCS, 2 mM glutamine, 10 mM HEPES, 5 μg/ml coelenterazine) in 384-well microtiter plates and kept in a cell incubator (96% humidity, 5% v/v CO2, 37° C.). On the day of the assay, test compounds in various concentrations are placed for 10 minutes in the wells of the microtiter plate before the agonist [Arg^8]-vasopressin at EC50 concentration is added. The resulting light signal is measured immediately in a luminometer.
Table 1A below lists individual IC50 values for the compounds of the invention (including racemic mixtures as well as separated enantiomers) that were obtained from cell lines transfected with the human Via or V2 receptor: […]

Chain of human V1a receptor (P37288 whole entry): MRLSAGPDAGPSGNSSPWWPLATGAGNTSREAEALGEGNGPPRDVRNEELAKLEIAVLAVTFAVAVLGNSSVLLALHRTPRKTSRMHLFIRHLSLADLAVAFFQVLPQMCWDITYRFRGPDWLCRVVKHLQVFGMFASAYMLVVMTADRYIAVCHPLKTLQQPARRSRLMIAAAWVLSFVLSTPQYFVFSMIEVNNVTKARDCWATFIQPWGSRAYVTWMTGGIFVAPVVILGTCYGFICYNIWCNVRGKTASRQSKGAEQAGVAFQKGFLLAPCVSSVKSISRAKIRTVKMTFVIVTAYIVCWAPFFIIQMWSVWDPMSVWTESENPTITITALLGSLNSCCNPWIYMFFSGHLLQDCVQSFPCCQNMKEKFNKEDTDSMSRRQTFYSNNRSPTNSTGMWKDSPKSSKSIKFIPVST

O=C(CCC(F)(F)F)NC(Cn1c(-c2ccc(Cl)cc2)nn(Cc2ncn(-c3ncccc3Cl)n2)c1=O)C(F)(F)F (racemic) [Example 33, N-{3-[3-(4-Chlorophenyl)-1-{[1-(3-chloropyridin-2-yl)-1H-1,2,4-triazol-3-yl]methyl}-5-oxo-1,5-dihydro-4H-1,2,4-triazol-4-yl]-1,1,1-trifluoropropan-2-yl}-4,4,4-trifluorobutanamide]
ratio IC50 hV2/hV1a: 26.1

O=C(CCC(F)(F)F)NC(Cn1c(-c2ccc(Cl)cc2)nn(Cc2ncn(-c3ncccc3Cl)n2)c1=O)C(F)(F)F (racemic) [Example 34, N-{3-[3-(4-Chlorophenyl)-1-{[1-(3-chloropyridin-2-yl)-1H-1,2,4-triazol-3-yl]methyl}-5-oxo-1,5-dihydro-4H-1,2,4-triazol-4-yl]-1,1,1-trifluoropropan-2-yl}-4,4,4-trifluorobutanamide]
ratio IC50 hV2/hV1a: 40.9

O=C(NC(Cn1c(-c2ccc(Cl)cc2)nn(Cc2ncn(-c3ncccc3Cl)n2)c1=O)C(F)(F)F)C1CS(=O)(=O)C1 (racemic) [Example 39, N-{3-[3-(4-Chlorophenyl)-1-{[1-(3-chloropyridin-2-yl)-1H-1,2,4-triazol-3-yl]methyl}-5-oxo-1,5-dihydro-4H-1,2,4-triazol-4-yl]-1,1,1-trifluoropropan-2-yl}thietane-3-carboxamide 1,1-dioxide]
ratio IC50 hV2/hV1a: 110.9

O=C(NC(Cn1c(-c2ccc(Cl)cc2)nn(Cc2ncn(-c3ncccc3Cl)n2)c1=O)C(F)(F)F)C1CS(=O)(=O)C1 (racemic) [Example 40, N-{3-[3-(4-Chlorophenyl)-1-{[1-(3-chloropyridin-2-yl)-1H-1,2,4-triazol-3-yl]methyl}-5-oxo-1,5-dihydro-4H-1,2,4-triazol-4-yl]-1,1,1-trifluoropropan-2-yl}thietane-3-carboxamide 1,1-dioxide]
ratio IC50 hV2/hV1a: 26.7

CS(=O)(=O)CC(=O)NC(Cn1c(-c2ccc(Cl)cc2)nn(Cc2ncn(-c3ncccc3Cl)n2)c1=O)C(F)(F)F (racemic) [Example 45, N-{3-[3-(4-Chlorophenyl)-1-{[1-(3-chloropyridin-2-yl)-1H-1,2,4-triazol-3-yl]methyl}-5-oxo-1,5-dihydro-4H-1,2,4-triazol-4-yl]-1,1,1-trifluoropropan-2-yl}-2-(methylsulfonyl)acetamide]
ratio IC50 hV2/hV1a: 9.8

CS(=O)(=O)CC(=O)NC(Cn1c(-c2ccc(Cl)cc2)nn(Cc2ncn(-c3ncccc3Cl)n2)c1=O)C(F)(F)F (racemic) [Example 46, N-{3-[3-(4-Chlorophenyl)-1-{[1-(3-chloropyridin-2-yl)-1H-1,2,4-triazol-3-yl]methyl}-5-oxo-1,5-dihydro-4H-1,2,4-triazol-4-yl]-1,1,1-trifluoropropan-2-yl}-2-(methylsulfonyl)acetamide]
ratio IC50 hV2/hV1a: 42.8

O=C(NC(Cn1c(-c2ccc(Cl)cc2)nn(Cc2ncn(-c3ncccc3Cl)n2)c1=O)C(F)(F)F)[C@@H]1C[C@H](F)CN1 (stereo in doubt) [Example 48, N-{3-[3-(4-Chlorophenyl)-1-{[1-(3-chloropyridin-2-yl)-1H-1,2,4-triazol-3-yl]methyl}-5-oxo-1,5-dihydro-4H-1,2,4-triazol-4-yl]-1,1,1-trifluoropropan-2-yl}-4-fluoro-prolinamide]
ratio IC50 hV2/hV1a: 56.5

O=C(NC(Cn1c(-c2ccc(Cl)cc2)nn(Cc2ncn(-c3ncccc3Cl)n2)c1=O)C(F)(F)F)[C@@H]1C[C@@H](F)CN1 (stereo in doubt) [Example 49, N-{3-[3-(4-Chlorophenyl)-1-{[1-(3-chloropyridin-2-yl)-1H-1,2,4-triazol-3-yl]methyl}-5-oxo-1,5-dihydro-4H-1,2,4-triazol-4-yl]-1,1,1-trifluoropropan-2-yl}-4-fluoro-prolinamide]
ratio IC50 hV2/hV1a: 112.7

Source: patent US11149023B2, “Substituted triazole derivatives and uses thereof” (Bayer Pharma Aktiengesellschaft, priority 2017, dated 2021)
